Measurements from ChEMBL document CHEMBL1949562, “Triterpenes possessing an unprecedented skeleton isolated from hydrolyzate of total saponins from Gynostemma pentaphyllum” (Eur J Med Chem, 2012).

Tests used:
[1] = Cytotoxicity against human Hep3B cells after 72 hrs by MTT assay; type: functional, cell-based, Hep 3B2
[2] = Cytotoxicity against human U87 cells after 72 hrs by MTT assay; type: functional, cell-based, U-87MG ATCC; conditions: U-87 MG
[3] = test system: A549; test: Cytotoxicity against human A549 cells after 72 hrs by MTT assay; type: functional, cell-based; conditions: A549, 72 h

Work on `CC(C)=CCC[C@](C)(O)[C@H]1CC[C@]2(C)[C@@H]1[C@H](O)C[C@@H]1[C@@]3(C)CC[C@H](O)C(C)(C)[C@@H]3CC[C@]12C` yielded an IC50 [1] of 14.7 µM and an IC50 [2] of 36.7 µM.

In the case of `CC(C)=C1CC=C([C@H]2CC[C@]3(C)[C@@H]2CC[C@@H]2C4=C(CC[C@]23C)C(C)(C)[C@@H]2CC[C@H]4O2)C1=O` [GYPENSAPOGENIN A], the IC50 [3] is reported as 71.2 µM, the IC50 [1] is reported as 44.4 µM and the IC50 [2] is reported as over 100 µM.

Compound `CC(C)=C1CC=C([C@H]2CC[C@]3(C)[C@@H]2CC[C@@H]2[C@@]4(C)CC[C@H](O)C(C)(C)[C@@H]4CC[C@]23C)C1=O` [GYPENSAPOGENIN C] has an IC50 [3] of 0.11 µM, an IC50 [1] of over 100 µM and an IC50 [2] of 0.58 µM.

In the case of `COc1cc([C@@H]2c3cc4c(cc3[C@@H](O[C@@H]3O[C@@H]5CO[C@@H](C)O[C@H]5[C@H](O)[C@H]3O)[C@H]3COC(=O)[C@H]23)OCO4)cc(OC)c1O` [ETOPOSIDE], the IC50 [3] is reported as 23.8 µM, the IC50 [1] is reported as 6.7 µM and the IC50 [2] is reported as 12.4 µM.

Work on `CC(C)=C[C@H]1C=C([C@H]2CC[C@]3(C)[C@@H]2CC[C@@H]2[C@@]4(C)CC[C@H](O)C(C)(C)[C@@H]4CC[C@]23C)C(=O)O1` [GYPENSAPOGENIN D] yielded an IC50 [3] of over 100 µM, an IC50 [1] of over 100 µM and an IC50 [2] of over 100 µM.

`CC(C)=C1CC([C@H]2CC[C@]3(C)[C@@H]2CC[C@@H]2C4=C(CC[C@]23C)C(C)(C)[C@@H]2CC[C@H]4O2)=CC1=O` [GYPENSAPOGENIN B] gave an IC50 [3] of over 100 µM, an IC50 [1] of over 100 µM and an IC50 [2] of over 100 µM.

Work on `CC(C)=C[C@H]1C=C([C@H]2CC[C@]3(C)[C@@H]2CC[C@@H]2[C@@]4(C)CC[C@H](O[C@@H]5O[C@H](CO)[C@@H](O)[C@H](O)[C@H]5O)C(C)(C)[C@@H]4CC[C@]23C)C(=O)O1` yielded an IC50 [3] of over 100 µM, an IC50 [1] of over 100 µM and an IC50 [2] of over 100 µM.
